Tests used:
Format in all cases: biochemical
GSK3-β (AA 1-420) = GSK3-β (AA 1-420) (Homo sapiens, UniProt P49841); assay: GSK-3 inhibition assay (coupled enzyme system); conditions: 10 μM ATP, 300 μM peptide, 60 nM GSK-3β, 30° C.
Experimental: Compounds were screened for their ability to inhibit GSK3-β (AA 1-420) activity using a standard coupled enzyme system (Fox et al. (1998) Protein Sci. 7, 2249). Reactions were carried out in a solution containing 100 mM HEPES (pH 7.5), 10 mM MgCl2, 25 mM NaCl, 300 μM NADH, 1 mM DTT and 1.5% DMSO. Final substrate concentrations in the assay were 10 μM ATP (Sigma Chemicals, St Louis, Mo.) and 300 μM peptide (HSSPHQS(PO3H2)EDEEE, American Peptide, Sunnyvale, Calif.). Reactions were carried out at 30° C. and 60 nM GSK-3β. Final concentrations of the components of the coupled enzyme system were 2.5 mM phosphoenolpyruvate, 300μM NADH, 30 μg/ml pyruvate kinase and 10 μg/ml lactate dehydrogenase.
An assay stock buffer solution was prepared containing all of the reagents listed above with the exception of ATP and the test compound of interest. 59 μl of the test reaction was placed in a 96 well ½-diameter plate (Corning, Corning, N.Y.) then treated with 1 μl of a 2 mM DMSO stock containing the test compound (final compound concentration 30 μM). The plate was incubated for ˜10 minutes at 30° C. then the reaction initiated by addition of 7 μl of ATP (final concentration 10 μM). Rates of reaction were obtained using a Molecular Devices Spectramax plate reader (Sunnyvale, Calif.) over a 5 minute read time at 30° C.
(§1) The compound numbers correspond to the compound numbers in Table 1.

Aurora2 = molecular target: T1, Aurora2 (Homo sapiens, UniProt O14965); assay: Aurora2 inhibition assay (coupled enzyme assay); conditions: 800 μM peptide LRRASLG, 70 nM Aurora2, 30° C.
T1 sequence (O14965 1-403): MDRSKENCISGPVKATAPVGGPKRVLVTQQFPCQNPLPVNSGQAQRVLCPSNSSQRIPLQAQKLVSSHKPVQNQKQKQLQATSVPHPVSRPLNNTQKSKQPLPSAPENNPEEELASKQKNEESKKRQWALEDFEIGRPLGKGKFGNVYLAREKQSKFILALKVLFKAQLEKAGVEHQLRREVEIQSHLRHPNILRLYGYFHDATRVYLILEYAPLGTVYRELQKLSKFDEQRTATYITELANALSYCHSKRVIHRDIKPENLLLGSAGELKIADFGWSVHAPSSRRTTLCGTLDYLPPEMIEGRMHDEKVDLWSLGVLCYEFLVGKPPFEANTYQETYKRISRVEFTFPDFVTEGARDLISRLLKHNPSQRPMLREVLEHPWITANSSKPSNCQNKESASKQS
Experimental: Compounds are screened in the following manner for their ability to inhibit Aurora2 using a standard coupled enzyme assay (Fox et al (1998). Protein Sci 7, 2246). To an assay stock buffer solution containing 0.1M HEPES 7.5, 10 mM MgCl2, 1 mM DTT, 25 mM NaCl, 2.5 mM prosphoenolpyruvate, […], […] pyruvate kinase, […] lactate dehydrogenase, […], and 800 μM peptide (LRRASLG, American Peptide, Sunnyvale, Calif.) is added a DMSO solution of a compound of the present invention to a final concentration of 30 μM. The resulting mixture is incubated at 30° C. for 10 minutes. The reaction was initiated by the addition of 10 μL of Aurora2 stock solution to give a final concentration of 70 nM in the assay. The rates of reaction are obtained by monitoring absorbance at 340 nm over a 5 minute read time at 30° C. using a BioRad Ultramark plate reader (Hercules, Calif.). The IC50 values are determined from the rate data as a function of inhibitor concentration.
as §1

Syk = Syk (Homo sapiens, UniProt P43405); assay: Syk inhibition assay (coupled enzyme assay); conditions: 200 μM ATP, 4 μM poly Gly-Tyr peptide, 30° C.
Experimental: Reactions were carried out in 100 mM HEPES pH 7.5, 10 mM MgCl2, 25 mM NaCl, 1 mM DTT and 1.5% DMSO. Final substrate .concentrations in the assay were 200 μM ATP (Sigmachemical Co.) and 4 μM poly Gly-Tyr peptide (Sigma Chemical Co.). Assays were carried out at 30° C. and 200 nM Syk. Final concentrations of the components of the coupled enzyme system were 2.5 mM phosphoenolpyruvate, 300 μM NADH, 30 μg/ml pyruvate kinase and 10 μg/ml lactate dehydrogenase.
An assay stock buffer solution was prepared containing all of the reagents listed above, with the exception of Syk, DTT and the test compound of interest. 56 μl of the test reaction was placed in a 96 well plate followed by the addition of 1 μl of 2 mM DMSO stock containing the test compound (final compound concentration 30 μM). […] Rates of reaction were obtained using a BioRad Ultramark plate reader (Hercules, Calif.) over a 5 minute read time at 30° C.
as §1

Sequence of GSK3-β (AA 1-420) (P49841 whole entry, the tested form may be a part): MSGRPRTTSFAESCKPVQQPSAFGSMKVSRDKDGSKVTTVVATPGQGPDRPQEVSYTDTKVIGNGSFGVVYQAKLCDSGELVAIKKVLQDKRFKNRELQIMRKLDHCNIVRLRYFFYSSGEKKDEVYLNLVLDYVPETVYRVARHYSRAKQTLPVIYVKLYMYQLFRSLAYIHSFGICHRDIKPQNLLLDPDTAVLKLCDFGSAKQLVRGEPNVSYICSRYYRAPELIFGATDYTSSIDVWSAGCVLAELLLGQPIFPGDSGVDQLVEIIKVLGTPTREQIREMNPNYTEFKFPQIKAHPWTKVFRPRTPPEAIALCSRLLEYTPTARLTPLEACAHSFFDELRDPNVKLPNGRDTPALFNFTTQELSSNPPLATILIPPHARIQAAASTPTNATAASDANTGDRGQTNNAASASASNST

Row | Structure (SMILES) | Ki (GSK3-β (AA 1-420)) [nM] | IC50 (Aurora2) [nM] | IC50 (Syk) [nM]
1 | c1ccc(Oc2ccc(-c3cccc(Nc4nccc(-c5nccs5)n4)c3)cc2)cc1 [Compound I-9] | < 100 | – | –
2 | c1ccc(COc2ccc(Nc3nccc(-c4nccs4)n3)cc2)cc1 [Compound I-10] | > 1000 | > 2000 | –
3 | COc1ccc(-c2cccc(Nc3nccc(-c4nccs4)n3)c2)c(OC)c1OC [Compound I-12] | < 100 | – | –
4 | c1ccc(Oc2ccc(Nc3nccc(-c4nccs4)n3)cc2)cc1 [Compound I-13] | – | > 2000 | –
5 | Fc1ccc(-c2cccc(Nc3nccc(-c4nccs4)n3)c2)c(F)c1 [Compound I-18] | < 100 | – | –
6 | Clc1ccc(Cl)c(-c2cccc(Nc3nccc(-c4nccs4)n3)c2)c1 [Compound I-21] | > 1000 | – | –
7 | Clc1cccc(-c2cccc(Nc3nccc(-c4nccs4)n3)c2)c1Cl [Compound I-24] | < 100 | – | –
8 | c1cncc(COc2cccc(N(Cc3cccnc3)c3nccc(-c4nccs4)n3)c2)c1 [Compound I-26] | – | < 500 | –
9 | FC(F)(F)c1ccccc1-c1cccc(Nc2nccc(-c3nccs3)n2)c1 [Compound I-27] | < 100 | – | –
10 | Clc1cccc(Nc2nccc(-c3nccs3)n2)n1 [Compound I-28] | < 100 | > 2000 | –
11 | O=[N+]([O-])c1ccc(Nc2nccc(-c3nccs3)n2)cc1 [Compound I-40] | < 100 | > 2000 | –
12 | FC(F)(F)c1ccccc1COc1cccc(Nc2nccc(-c3nccs3)n2)c1 [Compound I-47] | < 100 | – | > 2000
13 | c1cncc(Oc2cccc(Nc3nccc(-c4nccs4)n3)c2)c1 [Compound I-50] | – | 500 to 2000 | < 500
14 | COc1cccc(OC)c1-c1cccc(Nc2nccc(-c3nccs3)n2)c1 [Compound I-51] | 100 to 1000 | – | –
15 | c1ccc(Oc2cccc(Nc3nccc(-c4nccs4)n3)c2)nc1 [Compound I-53] | – | – | 500 to 2000
16 | COc1ccc(OC)c(-c2cccc(Nc3nccc(-c4nccs4)n3)c2)c1 [Compound I-54] | < 100 | – | –

Row | Structure (SMILES) | Ki (GSK3-β (AA 1-420)) [nM] | IC50 (Aurora2) [nM] | IC50 (Syk) [nM]
17 | COc1ccc(Nc2nccc(-c3nccs3)n2)cc1 [Compound I-70] | – | 500 to 2000 | –
18 | COc1cc(O)ccc1-c1cccc(Nc2nccc(-c3nccs3)n2)c1 [Compound I-75] | < 100 | – | –
19 | Cc1cnc(Nc2cccc(-c3ccc(O)cc3)c2)nc1-c1nccs1 [Compound I-84] | < 100 | – | –
20 | Fc1ccc(COc2cccc(Nc3nccc(-c4nccs4)n3)c2)cc1F [Compound I-85] | < 100 | > 2000 | –
21 | Cc1cnc(Nc2cccc(-c3cccnc3)c2)nc1-c1nccs1 [Compound I-87] | < 100 | – | –
22 | Cc1cnc(Nc2cccc(-c3cccc(N)c3)c2)nc1-c1nccs1 [Compound I-90] | < 100 | – | –
23 | COc1ccc(-c2ccccc2)cc1Nc1ncc(C)c(-c2nccs2)n1 [Compound I-93] | > 1000 | – | –
24 | COc1ccc(-c2ccccc2)cc1Nc1nccc(-c2nccs2)n1 [Compound I-96] | > 1000 | – | –
25 | O=[N+]([O-])c1cccc(Nc2cccc(Nc3nccc(-c4nccs4)n3)c2)c1 [Compound I-97] | – | > 2000 | –
26 | Cc1cnc(Nc2cccc(C(F)(F)F)c2)nc1-c1nccs1 [Compound I-99] | < 100 | – | –
27 | Fc1cc(F)cc(COc2cccc(Nc3nccc(-c4nccs4)n3)c2)c1 [Compound I-103] | < 100 | > 2000 | –
28 | COc1ccc(Nc2nccc(-c3nccs3)n2)cc1Oc1cccc(F)c1 [Compound I-105] | < 100 | – | –
29 | COc1ccc(Nc2nccc(-c3nccs3)n2)cc1Oc1cccc(Cl)c1 [Compound I-108] | 100 to 1000 | – | –
30 | COc1ccc(Nc2nccc(-c3nccs3)n2)cc1Oc1ccc(Cl)cc1 [Compound I-111] | < 100 | – | –
31 | COc1ccc(Oc2ccccc2)cc1Nc1nccc(-c2nccs2)n1 [Compound I-114] | > 1000 | 500 to 2000 | –
32 | COc1ccc(Oc2ccccc2)cc1Nc1ncc(C)c(-c2nccs2)n1 [Compound I-117] | > 1000 | – | –

The remaining lines, values ahead:

Row | Ki (GSK3-β (AA 1-420)) [nM] | IC50 (Aurora2) [nM] | IC50 (Syk) [nM] | Structure (SMILES)
33 | < 100 | – | – | Cc1ccccc1-c1cccc(Nc2nccc(-c3nccs3)n2)c1 [Compound I-3]
34 | < 100 | – | – | Fc1ccccc1-c1cccc(Nc2nccc(-c3nccs3)n2)c1 [Compound I-6]
35 | – | > 2000 | < 500 | c1ccc(COc2cccc(Nc3nccc(-c4nccs4)n3)c2)cc1 [Compound I-7, (3-Benzyloxy-phenyl)-(4-thiazol-2-yl-pyrimidin-2-yl)-amine]
36 | < 100 | – | – | COc1cc(F)cc(-c2cccc(Nc3nccc(-c4nccs4)n3)c2)c1 [Compound I-15]
37 | < 100 | < 500 | – | c1ccc(COc2cccc(Nc3nccc(-c4nccs4)n3)c2)nc1 [Compound I-20]
38 | < 100 | – | – | FC(F)(F)c1cccc(-c2cccc(Nc3nccc(-c4nccs4)n3)c2)c1 [Compound I-30]
39 | < 100 | – | – | CCOc1ccc(-c2cccc(Nc3nccc(-c4nccs4)n3)c2)cc1 [Compound I-33]
40 | 100 to 1000 | – | – | CCOc1ccccc1-c1cccc(Nc2nccc(-c3nccs3)n2)c1 [Compound I-36]
41 | < 100 | – | – | Cc1ccc(C)c(-c2cccc(Nc3nccc(-c4nccs4)n3)c2)c1 [Compound I-39]
42 | < 100 | > 2000 | – | Fc1ccccc1COc1cccc(Nc2nccc(-c3nccs3)n2)c1 [Compound I-41]
43 | < 100 | – | – | CCOc1cccc(-c2cccc(Nc3nccc(-c4nccs4)n3)c2)c1 [Compound I-42]
44 | < 100 | – | < 500 | COc1ccccc1COc1cccc(Nc2nccc(-c3nccs3)n2)c1 [Compound I-44]
45 | < 100 | – | – | CS(=O)(=O)c1ccc(-c2cccc(Nc3nccc(-c4nccs4)n3)c2)cc1 [Compound I-45]
46 | < 100 | – | – | N#Cc1ccc(-c2cccc(Nc3nccc(-c4nccs4)n3)c2)cc1 [Compound I-48]
47 | < 100 | – | – | Nc1cccc(-c2cccc(Nc3nccc(-c4nccs4)n3)c2)c1 [Compound I-57]
48 | < 100 | – | – | CSc1ccc(-c2cccc(Nc3nccc(-c4nccs4)n3)c2)cc1 [Compound I-60]
49 | < 100 | – | – | c1cncc(-c2cccc(Nc3nccc(-c4nccs4)n3)c2)c1 [Compound I-63]
50 | < 100 | – | – | Oc1ccc(-c2cccc(Nc3nccc(-c4nccs4)n3)c2)cc1 [Compound I-66]
51 | < 100 | – | – | Oc1ccccc1-c1cccc(Nc2nccc(-c3nccs3)n2)c1 [Compound I-69]
52 | < 100 | – | – | Oc1cccc(-c2cccc(Nc3nccc(-c4nccs4)n3)c2)c1 [Compound I-72]
53 | < 100 | – | – | c1cc(Nc2nccc(-c3nccs3)n2)cc(-c2ccc3[nH]ccc3c2)c1 [Compound I-78]
54 | < 100 | > 2000 | – | N#Cc1cccc(COc2cccc(Nc3nccc(-c4nccs4)n3)c2)c1 [Compound I-79]
55 | < 100 | – | – | CN(C)c1ccc(-c2cccc(Nc3nccc(-c4nccs4)n3)c2)cc1 [Compound I-81]
56 | < 100 | > 2000 | – | Fc1cccc(COc2cccc(Nc3nccc(-c4nccs4)n3)c2)c1 [Compound I-100]
57 | < 100 | – | > 2000 | Cc1ccccc1COc1cccc(Nc2nccc(-c3nccs3)n2)c1 [Compound I-115]

From patent US7256190B2, “Thiazole compounds useful as inhibitors of protein kinase” (Vertex Pharmaceuticals Incorporated, priority 2001, dated 2007)
